Measurements as given in the supplement of paper PMC11451515.

Tested on: P12-Ichikawa
Assay: cell viability relative to DMSO control; higher = less cytotoxic
Conditions: 48 h
Method in brief: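 Viability values are per-plate percentages of DMSO wells, with background from cell-free wells. Library compounds in DMSO were pin-dosed, in an 11-point threefold series from 47 μM to 0.79 nM, onto NOMO1 or SEM (500 cells/well) or P12-Ichikawa (1000 cells/well) leukemia cells in 1536-well plates (5 μl). Those cells had been adapted for at least four passages in each medium, and CellTiter-Glo One luminescence was read after 48 h at 37°C.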

[1] = HPLM + 10% dialyzed FBS, 0.000781 µM
[2] = HPLM + 10% dialyzed FBS, 0.00234 µM
[3] = HPLM + 10% dialyzed FBS, 0.00702 µM
[4] = HPLM + 10% dialyzed FBS, 0.0211 µM
[5] = HPLM + 10% dialyzed FBS, 0.0632 µM
[6] = HPLM + 10% dialyzed FBS, 0.19 µM
[7] = HPLM + 10% dialyzed FBS, 0.569 µM
[8] = HPLM + 10% dialyzed FBS, 1.71 µM
[9] = HPLM + 10% dialyzed FBS, 5.12 µM
[10] = HPLM + 10% dialyzed FBS, 15.4 µM
[11] = HPLM + 10% dialyzed FBS, 46.1 µM
[12] = RPMI 5 mM glucose + 10% FBS, 0.000781 µM
[13] = RPMI 5 mM glucose + 10% FBS, 0.00234 µM
[14] = RPMI 5 mM glucose + 10% FBS, 0.00702 µM
[15] = RPMI 5 mM glucose + 10% FBS, 0.0211 µM
[16] = RPMI 5 mM glucose + 10% FBS, 0.0632 µM
[17] = RPMI 5 mM glucose + 10% FBS, 0.19 µM
[18] = RPMI 5 mM glucose + 10% FBS, 0.569 µM
[19] = RPMI 5 mM glucose + 10% FBS, 1.71 µM
[20] = RPMI 5 mM glucose + 10% FBS, 5.12 µM
[21] = RPMI 5 mM glucose + 10% FBS, 15.4 µM
[22] = RPMI 5 mM glucose + 10% FBS, 46.1 µM
[23] = RPMI 5 mM glucose + 10% dialyzed FBS, 0.000781 µM
[24] = RPMI 5 mM glucose + 10% dialyzed FBS, 0.00234 µM
[25] = RPMI 5 mM glucose + 10% dialyzed FBS, 0.00702 µM
[26] = RPMI 5 mM glucose + 10% dialyzed FBS, 0.0211 µM
[27] = RPMI 5 mM glucose + 10% dialyzed FBS, 0.0632 µM
[28] = RPMI 5 mM glucose + 10% dialyzed FBS, 0.19 µM
[29] = RPMI 5 mM glucose + 10% dialyzed FBS, 0.569 µM
[30] = RPMI 5 mM glucose + 10% dialyzed FBS, 1.71 µM
[31] = RPMI 5 mM glucose + 10% dialyzed FBS, 5.12 µM
[32] = RPMI 5 mM glucose + 10% dialyzed FBS, 15.4 µM
[33] = RPMI 5 mM glucose + 10% dialyzed FBS, 46.1 µM

Compound | cell viability [1] [%] | cell viability [2] [%] | cell viability [3] [%] | cell viability [4] [%] | cell viability [5] [%] | cell viability [6] [%] | cell viability [7] [%] | cell viability [8] [%] | cell viability [9] [%] | cell viability [10] [%] | cell viability [11] [%] | cell viability [12] [%] | cell viability [13] [%] | cell viability [14] [%] | cell viability [15] [%] | cell viability [16] [%] | cell viability [17] [%] | cell viability [18] [%] | cell viability [19] [%] | cell viability [20] [%] | cell viability [21] [%] | cell viability [22] [%] | cell viability [23] [%] | cell viability [24] [%] | cell viability [25] [%] | cell viability [26] [%] | cell viability [27] [%] | cell viability [28] [%] | cell viability [29] [%] | cell viability [30] [%] | cell viability [31] [%] | cell viability [32] [%] | cell viability [33] [%]
O=C(O)CCCCC(CCSCc1ccccc1)SCc1ccccc1 (centres undefined) | 108 | 115 | 114 | 109 | 120 | 116 | 122 | 113 | 118 | 62.1 | 9.29 | 112 | 117 | 138 | 119 | 128 | 132 | 130 | 135 | 121 | 119 | 58.4 | 106 | 116 | 116 | 111 | 122 | 124 | 121 | 122 | 116 | 101 | 52.9
CCc1cc(C(N)=S)ccn1 | 116 | 115 | 120 | 126 | 124 | 122 | 127 | 114 | 104 | 93.7 | 80.2 | 108 | 121 | 118 | 115 | 122 | 134 | 119 | 128 | 114 | 103 | 104 | 111 | 124 | 119 | 120 | 121 | 129 | 122 | 120 | 104 | 95.9 | 86.5
CCn1c(-c2nonc2N)nc2c(C#CC(C)(C)O)ncc(OC[C@H]3CCCNC3)c21 | 91.1 | 94 | 89 | 84.1 | 73.1 | 74.6 | 69.9 | 66.3 | 65.8 | 61.4 | 58.7 | 77 | 86.2 | 76.2 | 70.6 | 53.1 | 56.4 | 46.2 | 52.7 | 45.1 | 45.9 | 46.7 | 81.2 | 87.4 | 80.5 | 77.3 | 66.5 | 66.7 | 58.9 | 56.6 | 48.8 | 50.2 | 49.9
NC[C@@H]1O[C@H](O[C@H]2[C@@H](O)[C@H](O[C@@H]3[C@@H](O)[C@H](N)C[C@H](N)[C@H]3O[C@H]3O[C@H](CN)[C@@H](O)[C@H](O)[C@H]3N)O[C@@H]2CO)[C@H](N)[C@@H](O)[C@@H]1O.O=S(=O)(O)O.O=S(=O)(O)O.O=S(=O)(O)O | 108 | 96.4 | 108 | 107 | 105 | 107 | 103 | 103 | 107 | 99.5 | 98.3 | 102 | 97.9 | 104 | 98 | 103 | 97.6 | 101 | 98 | 100 | 96.4 | 96 | 105 | 100 | 105 | 103 | 96.8 | 102 | 102 | 93.3 | 94.6 | 97.9 | 93.4
O=C(CCCCCCC(=O)Nc1cccnc1)NO | 93 | 99.9 | 96.9 | 96.9 | 105 | 109 | 99.5 | 90.8 | 82.1 | 12.2 | 4.36 | 82.5 | 95.6 | 93.7 | 93.4 | 97.5 | 95.4 | 99.6 | 85.7 | 76.1 | 9.59 | 3.79 | 86.9 | 92.8 | 90.7 | 91.9 | 94.7 | 95.1 | 94.3 | 85.2 | 73.9 | 10 | 3.83
CC[C@]12CC[C@H]3[C@@H](CCC/4=C/C(=O)CC[C@H]34)[C@@H]1CC[C@@]2(O)C#C | 94.2 | 85.6 | 83.8 | 87.2 | 104 | 89.2 | 68.9 | 79.3 | 85.5 | 82.6 | 90.5 | 86.3 | 88.3 | 87.2 | 90.4 | 85.1 | 83.9 | 75.1 | 88 | 86.1 | 79.6 | 83.7 | 83.3 | 79.5 | 88.3 | 79.3 | 86.7 | 78 | 81.3 | 77 | 83.1 | 73 | 79.7
C[C@@H]1CCN(C(=O)CC#N)C[C@@H]1N(C)c1ncnc2[nH]ccc12 | 97.1 | 87.1 | 82.4 | 91.3 | 86.7 | 88.5 | 86.2 | 87.7 | 77.5 | 84 | 78.6 | 81.9 | 85.6 | 83.6 | 86.3 | 95.5 | 85.2 | 92.4 | 88.2 | 87.6 | 82.1 | 81.9 | 81.9 | 80.6 | 84.7 | 81.8 | 79.4 | 79.4 | 78.7 | 76.4 | 78.2 | 72.1 | 73.8
CCC(C)N1\N=C/N(C1=O)C2=CC=C(C=C2)N3CCN(CC3)C4=CC=C(OC[C@H]5CO[C@@](C[N]6C=NC=N6)(O5)C7=CC=C(Cl)C=C7Cl)C=C4 (some centres undefined) | 99.9 | 109 | 114 | 120 | 111 | 115 | 101 | 101 | 103 | 98.8 | 104 | 111 | 111 | 119 | 114 | 108 | 115 | 115 | 99.7 | 108 | 110 | 97.2 | 111 | 113 | 108 | 111 | 113 | 111 | 106 | 105 | 100 | 98.5 | 95.7
CCOC(=O)[C@@]1(CCCCCCOc2ccc(Cl)cc2)CO1 | 113 | 108 | 117 | 114 | 112 | 113 | 111 | 105 | 105 | 95.2 | 7.68 | 108 | 115 | 114 | 117 | 118 | 111 | 107 | 110 | 115 | 104 | 12.1 | 121 | 123 | 125 | 122 | 114 | 111 | 116 | 107 | 113 | 107 | 20.8
COc1ccc(C(CN(C)C)C2(O)CCCCC2)cc1 (centres undefined) | 111 | 106 | 108 | 107 | 115 | 114 | 95.3 | 96.5 | 106 | 98.2 | 108 | 116 | 115 | 134 | 151 | 120 | 91.1 | 81.8 | 97 | 106 | 85.7 | 109 | 98.4 | 111 | 109 | 103 | 120 | 106 | 105 | 106 | 101 | 91.5 | 97.1
C[C@H]1C[C@H]2[C@@H]3CC[C@](O)(C(=O)CO)[C@@]3(C)C[C@H](O)[C@@H]2[C@@]\4(C)/C=C\C(=O)\C=C14 | 96.9 | 97.4 | 96.9 | 91.7 | 98.7 | 88.1 | 64.1 | 64.9 | 57.3 | 57.6 | 56.9 | 91.2 | 96.3 | 95.4 | 96.8 | 78.5 | 80 | 55.2 | 50.4 | 47.6 | 48.2 | 45 | 85.3 | 88.2 | 84.1 | 93.5 | 88.2 | 74.2 | 53.3 | 40.6 | 40.6 | 38.6 | 34.9
Clc1cccc(-n2nnnc2NCc2ccccc2Oc2ccccn2)c1Cl | 120 | 120 | 116 | 124 | 123 | 136 | 133 | 133 | 133 | 131 | 127 |  |  |  |  |  |  |  |  |  |  |  |  |  |  |  |  |  |  |  |  |  | 
CN1CCN(c2c(F)cc3c(=O)c(C(=O)O)cn(CCF)c3c2F)CC1 | 99.8 | 101 | 106 | 112 | 112 | 111 | 111 | 115 | 121 | 120 | 108 | 101 | 104 | 95.5 | 108 | 109 | 121 | 107 | 108 | 103 | 112 | 111 | 95.9 | 104 | 110 | 107 | 110 | 107 | 110 | 108 | 119 | 115 | 116
CCCC(C)(COC(N)=O)COC(=O)NC(C)C (centres undefined) | 115 | 117 | 114 | 130 | 127 | 123 | 121 | 119 | 129 | 135 | 119 |  |  |  |  |  |  |  |  |  |  |  |  |  |  |  |  |  |  |  |  |  | 
CC\12CCC(=O)\C=C1CCC3C2CCC4(C)C3CCC4(O)C#C (centres undefined) | 102 | 101 | 99.2 | 93.9 | 97.9 | 93.4 | 92 | 92.3 | 94.2 | 80.6 | 92.3 | 99.3 | 102 | 97.7 | 100 | 96.8 | 97.1 | 93.1 | 96.6 | 85.7 | 81.8 | 90.3 | 83.5 | 85.6 | 88.9 | 91.1 | 95.7 | 93.6 | 91.1 | 88.6 | 85.4 | 84.2 | 83
NC(=O)Nc1sc(-c2ccc(F)cc2)cc1C(N)=O | 113 | 115 | 116 | 108 | 114 | 111 | 104 | 105 | 83.4 | 67.3 | 24.3 | 113 | 114 | 111 | 110 | 105 | 119 | 106 | 106 | 83.9 | 64.6 | 22.1 | 118 | 119 | 117 | 110 | 115 | 112 | 110 | 97.3 | 82.4 | 70.2 | 27.3
